Results published in ChEMBL document CHEMBL1629418, “Spiroimidazolidinone NPC1L1 inhibitors. Part 2: structure-activity studies and in vivo efficacy” (Bioorg Med Chem Lett, 2010).

biological target: T1, NPC1-like intracellular cholesterol transporter 1 (Homo sapiens, UniProt Q9UHC9); experiment: Displacement of [35S](2S,3S,4S,5R,6S)-6-(4-((2S,3R)-3-((S)-3-(4-fluorophenyl)-3-hydroxypropyl)-1-(4-(3-(methylsulfonamido)prop-1-ynyl)phenyl)-4-oxoazetidin-2-yl)phenoxy)-3,4,5-trihydroxytetrahydro-2H-pyran-2-carboxylic acid from human NCP1L1 expressed in HEK 293; format: cell-based, HEK293
T1 sequence (Q9UHC9 whole entry): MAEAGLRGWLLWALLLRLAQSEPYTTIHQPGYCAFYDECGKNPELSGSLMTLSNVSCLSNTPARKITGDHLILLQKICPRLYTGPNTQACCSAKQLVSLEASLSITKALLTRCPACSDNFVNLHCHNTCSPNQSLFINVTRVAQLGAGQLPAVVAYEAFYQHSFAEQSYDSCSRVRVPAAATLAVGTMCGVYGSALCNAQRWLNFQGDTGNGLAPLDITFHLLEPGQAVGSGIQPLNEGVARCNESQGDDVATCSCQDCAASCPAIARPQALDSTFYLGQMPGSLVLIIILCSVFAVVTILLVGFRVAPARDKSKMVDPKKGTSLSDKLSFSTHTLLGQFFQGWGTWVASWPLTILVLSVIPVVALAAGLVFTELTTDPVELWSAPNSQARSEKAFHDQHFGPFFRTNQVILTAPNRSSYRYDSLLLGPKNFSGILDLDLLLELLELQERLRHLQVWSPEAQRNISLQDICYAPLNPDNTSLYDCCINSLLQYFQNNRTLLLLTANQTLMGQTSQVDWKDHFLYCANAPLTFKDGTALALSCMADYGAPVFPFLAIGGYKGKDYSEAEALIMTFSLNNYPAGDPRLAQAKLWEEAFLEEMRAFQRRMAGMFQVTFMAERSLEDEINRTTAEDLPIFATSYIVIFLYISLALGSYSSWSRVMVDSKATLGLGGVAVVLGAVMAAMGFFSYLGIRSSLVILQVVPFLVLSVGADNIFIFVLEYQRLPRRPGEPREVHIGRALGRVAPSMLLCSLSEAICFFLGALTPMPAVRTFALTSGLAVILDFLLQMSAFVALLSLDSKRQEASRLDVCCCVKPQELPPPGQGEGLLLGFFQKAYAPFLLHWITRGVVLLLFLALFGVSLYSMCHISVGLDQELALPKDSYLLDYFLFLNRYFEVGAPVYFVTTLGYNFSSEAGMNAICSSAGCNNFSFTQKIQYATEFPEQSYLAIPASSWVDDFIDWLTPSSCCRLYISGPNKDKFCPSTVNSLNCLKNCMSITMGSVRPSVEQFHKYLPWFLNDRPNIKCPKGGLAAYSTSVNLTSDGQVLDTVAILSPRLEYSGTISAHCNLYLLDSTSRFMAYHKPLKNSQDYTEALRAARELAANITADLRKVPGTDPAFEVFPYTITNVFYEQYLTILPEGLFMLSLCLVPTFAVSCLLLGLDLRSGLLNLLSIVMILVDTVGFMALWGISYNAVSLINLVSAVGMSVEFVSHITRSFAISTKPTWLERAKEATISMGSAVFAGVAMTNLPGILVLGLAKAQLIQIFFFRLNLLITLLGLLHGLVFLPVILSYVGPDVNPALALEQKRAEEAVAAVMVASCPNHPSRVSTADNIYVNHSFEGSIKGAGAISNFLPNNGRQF

IC50 | SMILES
6.3 µM | CS(=O)(=O)N1CCN(C(=O)CN2CN(c3ccccc3)C3(CCN(C(=O)c4ccc(C5CCCCC5)cc4)CC3)C2=O)CC1
16.9 µM | CC(C)(C)c1ccc(C(=O)N2CCC3(CC2)C(=O)N(CC(=O)N2CCCC(C(N)=O)C2)CN3c2ccccc2)cc1 (stereo not given)
1.1 µM | O=C(CN1CN(c2ccccc2)C2(CCN(C(=O)c3ccc(C4CCCCC4)cc3)CC2)C1=O)N1CCC(CO)CC1
59 µM | CC(C)(C)OC(=O)NCNC(=O)CN1CN(c2ccccc2)C2(CCN(C(=O)c3ccc(C(C)(C)C)cc3)CC2)C1=O
23.6 µM | CC(C)(C)c1ccc(C(=O)N2CCC3(CC2)C(=O)N(CC(=O)NCCC(=O)O)CN3c2ccccc2)cc1
2.6 µM | CC(C)(C)c1ccc(C(=O)N2CCC3(CC2)C(=O)N(CC(=O)N2CCC(CCO)CC2)CN3c2ccccc2)cc1
3.1 µM | NC(=O)C1CCCN(C(=O)CN2CN(c3ccccc3)C3(CCN(C(=O)c4ccc(C5CCCCC5)cc4)CC3)C2=O)C1 (stereo not given)
3.3 µM | CCN(CC)C(=O)C1CCCN(C(=O)CN2CN(c3ccccc3)C3(CCN(C(=O)c4ccc(C5CCCCC5)cc4)CC3)C2=O)C1 (stereo not given)
7 µM | CS(=O)(=O)NCCNC(=O)CN1CN(c2ccccc2)C2(CCN(C(=O)c3ccc(C4CCCCC4)cc3)CC2)C1=O
59 µM | CC(C)(C)c1ccc(C(=O)N2CCC3(CC2)C(=O)N(CC(=O)NCCN)CN3c2ccccc2)cc1
6.5 µM | O=C(CN1CN(c2ccccc2)C2(CCN(C(=O)c3ccc(C4CCCCC4)cc3)CC2)C1=O)N1CCNCC1
49 µM | CC(C)(C)c1ccc(C(=O)N2CCC3(CC2)C(=O)N(CC(=O)NCCCN)CN3c2ccccc2)cc1
14 µM | CC(C)(C)c1ccc(C(=O)N2CCC3(CC2)C(=O)N(CC(=O)NCCCCN)CN3c2ccccc2)cc1
3.1 µM | CC(C)(C)OC(=O)NCCCCCNC(=O)CN1CN(c2ccccc2)C2(CCN(C(=O)c3ccc(C(C)(C)C)cc3)CC2)C1=O
3.7 µM | CC(C)(C)OC(=O)NCCCNC(=O)CN1CN(c2ccccc2)C2(CCN(C(=O)c3ccc(C4CCCCC4)cc3)CC2)C1=O
4.5 µM | COC(=O)CCCNC(=O)CN1CN(c2ccccc2)C2(CCN(C(=O)c3ccc(C4CCCCC4)cc3)CC2)C1=O
19 µM | CC(C)(C)c1ccc(C(=O)N2CCC3(CC2)C(=O)N(CC(=O)N2CCN(S(C)(=O)=O)CC2)CN3c2ccccc2)cc1
7.7 µM | CC(C)(C)c1ccc(C(=O)N2CCC3(CC2)C(=O)N(CC(=O)NCCCCCN)CN3c2ccccc2)cc1
11.8 µM | CC(C)(C)c1ccc(C(=O)N2CCC3(CC2)C(=O)N(CC(=O)N2CCCCC2CO)CN3c2ccccc2)cc1 (stereo not given)
9.5 µM | CC(C)(C)OC(=O)NCC1CCCN(C(=O)CN2CN(c3ccccc3)C3(CCN(C(=O)c4ccc(C(C)(C)C)cc4)CC3)C2=O)C1 (stereo not given)
23.6 µM | CC(C)(C)c1ccc(C(=O)N2CCC3(CC2)C(=O)N(CC(=O)NCCCO)CN3c2ccccc2)cc1
4.7 µM | CC(C)(C)c1ccc(C(=O)N2CCC3(CC2)C(=O)N(CC(=O)N2CCC(O)CC2)CN3c2ccccc2)cc1
14.2 µM | O=C(CN1CN(c2ccccc2)C2(CCN(C(=O)c3ccc(C4CCCCC4)cc3)CC2)C1=O)N1CCN(S(=O)(=O)c2ccccc2)CC1
13.7 µM | CC(C)(C)OC(=O)NCCNC(=O)CN1CN(c2ccccc2)C2(CCN(C(=O)c3ccc(C4CCCCC4)cc3)CC2)C1=O
0.9 µM | CCOC(=O)C1CCN(C(=O)CN2CN(c3ccccc3)C3(CCN(C(=O)c4ccc(C5CCCCC5)cc4)CC3)C2=O)CC1
3.2 µM | CC(C)(C)OC(=O)NCCCNC(=O)CN1CN(c2ccccc2)C2(CCN(C(=O)c3ccc(C(C)(C)C)cc3)CC2)C1=O
10.4 µM | CC(C)(C)c1ccc(C(=O)N2CCC3(CC2)C(=O)N(CC(=O)NCCCNS(C)(=O)=O)CN3c2ccccc2)cc1
6.1 µM | CC(C)(C)c1ccc(C(=O)N2CCC3(CC2)C(=O)N(CC(=O)N2CCCCC2CCO)CN3c2ccccc2)cc1 (stereo not given)
16.6 µM | COC(=O)CNC(=O)CN1CN(c2ccccc2)C2(CCN(C(=O)c3ccc(C(C)(C)C)cc3)CC2)C1=O
2.5 µM | CC(C)(C)OC(=O)NCC1CCN(C(=O)CN2CN(c3ccccc3)C3(CCN(C(=O)c4ccc(C5CCCCC5)cc4)CC3)C2=O)CC1
